# Assay results: US6562837B1, “Use of tetrahydroisoquinoline compounds for the treatment of septicemia” (Korea Institute of Science & Technology, priority 1998, dated 2003)
# Like-named read-outs stand apart in the source and are kept apart here.
# Assays:
# [1] = system: thrombus formation in AVS tube; assay: Thrombus formation in arterio-venous shunt (AVS) tube in rats; type: in vivo; conditions: for Weight (mg) of thrombus: control 42.67 ± 5.381
# Description: An AVS tube was prepared. For this, a scalp vein set was cut into a length of 18 cm, and each end was connected to a 18G syringe needle while a 100% cotton thread 5 cm long was fixed to the center of the tube. Rats were anesthetized with ketamine (250 mg/kg) by injection (i.m.) and underwent laparotomy. An AVS tube filled with saline was installed between the abdominal aorta and the renal vein in such a way that its one syringe needle was inserted in the abdominal aorta and the other syringe needle was inserted in the renal vein. Blood was allowed to pass through the AVS tube so as to form thrombus on the cotton thread. After circulation of blood through the AVS tube for 15 min, the thread was taken out from the AVS tube. The weight of the thrombus formed on the cotton thread was determined by weighing the thread.
# [2] = system: iNOS mRNA; assay: Suppression of LPS-induced iNOS mRNA expression in rat isolated aorta (Northern blot); type: cell-based; conditions: LPS 300 ng/ml, 8 hours; compound 10, 30 and 100 μM; FIG. 1
# Description: Rats were anesthetized with pentobarbital sodium (50 mg/kg) and the aorta was isolated, followed by removing endothelium from the aorta. After being incubated at 37° C. for 8 hours in a Krebs solution containing 300 ng/ml of LPS, the aorta was subjected to total RNA extraction with the aid of a trizol solution (GibcoBRL). After quantification by use of a UV spectrophotometer (Shimadzu, UV-1201), the total RNA obtained was electrophoresed on a formamide-formaldehyde agarose gel and transferred to a nylon membrane. Thereafter, the total RNA on the nylon membrane was hybridized with cDNA probes for iNOS to determine the expression level of iNOS mRNA, in which the cDNA of iNOS was labeled with ^32P-dCTP by a random-primer method. For quantification, an x-ray film was exposed to the radioactive irradiation from the nylon membrane and developed to compare the dot sizes of desired objects with those of GAPDH (glyceraldehyde-3-phosphate dehydrogenase).
# When aortic preparations were incubated, in vitro, the blood vessel was cultured, in vitro, in the presence of LPS, iNOS mRNA was transcribed in a large amount. […]
# [3] = Toxicity experiment, 50% lethal dose (LD50); conditions: in vivo, ip; intraperitoneally injected
# [4] = system: NO synthesis in macrophages (RAW 264.7 cells); assay: Suppression of LPS- and IFN-γ-induced NO synthesis in macrophage (nitrite, Griess reagent); type: cell-based; conditions: 18 hours, control 8, LPS + IFN-γ alone 57
# Description: In a DMEM medium supplemented with thermally treated 10% fetal calf serum, penicillin (100 U/ml) and streptomycin ([…]), macrophages (RAW 264.7 cells) were cultured to be confluent in a CO2 incubator. After being transferred to a serum-free DMEM medium, the cells were cultured for additional 24 hours and then, further for 18 hours in the presence of LPS (100 ng/ml) and IFN-γ, and either of the compounds of Chemical Formulas 1 and 2 (0, 1, 10, and 100:μM). The amount of the NO synthesized was measured indirectly through the amount of nitrite, an oxidation product of NO. To this end, the nitrite was subjected to color reaction with the Griess reagent (0.1% naphthylethylenediamine dihydrochloride, 1% sulphanilamide, 5% phosphate solution) and its absorbance at 550 nm was measured by a spectrophotometer.
# [5] = system: LPS-caused death; assay: Preventive effect on LPS-caused death in mice; type: in vivo; conditions: for survival rate until 48 hours: 10 mg/kg i.p. 30 min before LPS (20 mg/kg i.p.), LPS only about 20%; for deaths up to 30 hours after the LPS injection: 20 mg/kg i.p. 30 min before LPS (20 mg/kg i.p.)
# Description: When a large quantity of LPS is injected into animals, various diseases, such as DIC, are generated and they are dead of septic shock in a short period of time. In this experiment, LPS (20 mg/kg) was intraperitoneally injected into mice and the number of mice which were alive for 48 hours after the injection, was counted. Also, an examination was made of the influence of test drugs on the survival ratio.
# LPS (20 mg/kg) was administered to mice by injection (i.p.), after which the mice alive were countered every 6 hours for 48 hours. 30 min before LPS injection, test drugs were intraperitoneally injected into the mice to examine the preventive effect on the LPS-caused death.
# [6] = system: human platelets; assay: Inhibitory effect on platelet aggregation in human platelet rich plasma; type: cell-based
# Description: For experiment, a blood platelet concentrate which was purchased from the Blood Bank of the Seoul National University Hospital, Korea, was measured for the number of platelets with the aid of a platelet analyzer (PLT-4, Texas Instruments), and diluted with phosphate buffered saline (hereinafter referred to as “PBS”) to give platelet rich plasma (hereinafter referred to as “PRP”) which ranged, in platelet number, from 300×10^6 to 400×10^6/ml. After being incubated at 37° C. for 3 min, PRP was added with ADP, collagen or epinephrine to induce platelet aggregation. The reduction in turbidity of PRP was observed and the degree of aggregation was monitored using a platelet aggregometer, such as that manufactured by Chrono-Log Corp. U.S.A., identified as “Model 500VS”.
# The inhibitory activities of sample compounds against the platelet aggregation were evaluated as the % inhibition calculated according to the following equation: […]
# A: aggregation degree of platelets obtained when adding a platelet aggregation inducer alone;
# B: aggregation degree of platelets obtained when adding a combination of a platelet aggregation inducer and a sample.
# Obtained using human platelets, the inhibitory effects of the compounds of Chemical Formulas 1 and 2 on platelet aggregation are given, along with the results from the control higenamine, in Table 1, below.
# [7] = 10 mg/kg orally once a day for successive three days
# [8] = 25 mg/kg orally once, first series, control 33.61 mg
# [9] = 25 mg/kg orally once, first series, control 33.61 ± 7.620
# [10] = 50 mg/kg orally once a day for successive three days
# [11] = 50 mg/kg orally once, second series, control 39.54 mg
# [12] = 50 mg/kg orally once, second series, control 39.54 ± 5.625
# [13] = Homo sapiens, read-out: IC50 (M), ADP-induced platelet aggregation
# [14] = human PRP, inducer collagen 2-4 × 10^−6 g/ml, read-out: IC50 (M), collagen-induced platelet aggregation
# [15] = human PRP, inducer epinephrine 2 × 10^−6 M, read-out: IC50 (M), epinephrine-induced platelet aggregation
SMILES,"% Inhibition of thrombus formation [1, 7] [%]","Weight (mg) of thrombus [1, 7] [mg]","% Inhibition of thrombus formation [1, 8] [%]","Weights (mg) of thrombus [1, 9] [mg]","% Inhibition of thrombus formation [1, 10] [%]","Weight (mg) of thrombus [1, 10] [mg]","% Inhibition of thrombus formation [1, 11] [%]","Weights (mg) of thrombus [1, 12] [mg]",LPS-induced iNOS mRNA expression in isolated rat aorta [2],LD50 [3] [mg/kg],Concentration of Nitrite ([4]; compound 1 μM + LPS + IFN-γ) [µM],Concentration of Nitrite ([4]; compound 10 μM + LPS + IFN-γ) [µM],Concentration of Nitrite ([4]; compound 100 μM + LPS + IFN-γ) [µM],survival rate until 48 hours [5] [%],deaths up to 30 hours after the LPS injection [5],"IC50 [6, 13] [M]","IC50 [6, 14] [M]","IC50 [6, 15] [M]","IC50 ([6]; human PRP, inducer ADP 1 × 10^−3 M, read-out: IC50 (M), ADP-induced platelet aggregation) [M]"
"Oc1cc2c(cc1O)C(Cc1cccc3ccccc13)NCC2 (stereo not drawn) [Compound 1, 1-α-naphthylmethyl-6,7-dihydroxy-1,2,3,4-tetrahydroisoquinoline]",25.5,31.78 ± 8.385,39.7,20.27 ± 5.366,28.0,30.72 ± 6.334,24.8,29.72 ± 5.975,inhibits the LPS-induced iNOS mRNA expression in a concentration-dependent manner,290,30 ± 2.9,25 ± 3.4,9 ± 3.0,60,no mice were dead until 30 hours,0.00073,9.2e-05,3.4e-06,
"Oc1cc2c(cc1O)C(Cc1ccc3ccccc3c1)NCC2 (stereo not drawn) [Compound 2, 1-β-naphthylmethyl-6,7-dihydroxy-1,2,3,4-tetrahydroisoquinoline]",24.4,32.24 ± 4.836,32.5,22.68 ± 10.127,29.3,30.18 ± 6.571,27.7,28.58 ± 4.234,,439,34 ± 3.1,22 ± 2.8,11 ± 2.0,80,no mice were dead until 30 hours,0.00086,9.6e-06,6e-06,
"Oc1ccc(CC2NCCc3cc(O)c(O)cc32)cc1 (centres unmarked) [Higenamine, reference compound]",13.9,36.76 ± 7.964,31.6,22.98 ± 11.271,18.7,34.68 ± 8.513,25.1,29.61 ± 5.059,,,,,,80,,,7e-05,1.9e-05,> 0.001
